Results as given in patent US12303551B2, “Cellular immunotherapy compositions and uses thereof” (CERO THERPEUTICS HOLDINGS, INC., priority 2018, dated 2025).

Tested on: HCC827 NSCLC cells
Test: FACS phagocytosis assay of TAMRA-SE labeled HCC827 cells with or without bafilomycin
Type: cell-based
Settings: 20 nM added to co-culture
Source text: FIGS. 73A-73B show ablation of CER-induced phagocytosis by bafilomycin, an inhibitor of phagolysosome V-ATPase. CER104-modified CD4+ T cells and mock transduced CD4+ T cells (control) were co-cultured with HCC827 cells that were labeled with TAMRA-SE fluorescent dye and treated with osimertinib. Phagocytosis was quantified by FACs.
T cells were transduced with lentiviral vector comprising hCER104 nucleic acid as described in Example 6. hCER104 modified T cells were co-cultured with HCC827 adenocarcinoma cells with or without osimertinib. […] FACs plots from in vitro phagocytosis assays in hCER104 modified T cells or mock transduced control T cells are shown in FIG. 73B.

In the case of `CO/C1=C\C(C)=C\[C@@H](C)[C@@H](O)[C@@H](C)C/C(C)=C/C=C/[C@H](OC)[C@@H]([C@@H](C)[C@@H](O)[C@H](C)[C@@]2(O)C[C@@H](O)[C@H](C)[C@@H](C(C)C)O2)OC1=O` [bafilomycin, reference compound], the “effect on uptake of labeled HCC827 cells by hCER104 modified T cells” value is reported as “blocked uptake”.
